In the supplement of paper PMC10307832:

How the values were obtained:
Test in all cases: relative viability (nuclei count vs DMSO), 5 days (fraction); higher = more cells survive
BEN = system: BEN
Procedure, shortened: (§1)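 Lung cancer cell lines in 1536-well plates were dosed by pin tool the day after seeding, either with one drug alone or with a fixed anchor-drug dose plus five library-drug doses (not always all listed) in √10 steps. After 5 days, cells were fixed and their nuclei stained in one step (final 0.05% Triton X-100, 1% formaldehyde, 1 ug/ml Hoechst), then counted on 4× images. Relative viability is the nuclei count in treated wells divided by that in vehicle wells. Values are medians of duplicate plates.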

NCI-H358 = system: NCI-H358
Procedure, shortened: as §1

LCLC-97TM1 = system: LCLC-97TM1
Procedure, shortened: as §1

LC-2-ad = system: LC-2-ad
Procedure, shortened: as §1

LXF-289 = system: LXF-289
Procedure, shortened: as §1

NCI-H2087 = system: NCI-H2087
Procedure, shortened: as §1

NCI-H650 = system: NCI-H650
Procedure, shortened: as §1

NCI-H596 = system: NCI-H596
Procedure, shortened: as §1

HCC-15 = system: HCC-15
Procedure, shortened: as §1

NCI-H838 = system: NCI-H838
Procedure, shortened: as §1

ChaGo-K-1 = system: ChaGo-K-1
Procedure, shortened: as §1

UMC-11 = system: UMC-11
Procedure, shortened: as §1

NCI-H1651 = system: NCI-H1651
Procedure, shortened: as §1

NCI-H2342 = system: NCI-H2342
Procedure, shortened: as §1

LU99A = system: LU99A
Procedure, shortened: as §1

HCC-78 = system: HCC-78
Procedure, shortened: as §1

NCI-H322M = system: NCI-H322M
Procedure, shortened: as §1

PC-3 [JPC-3] = system: PC-3 [JPC-3]
Procedure, shortened: as §1

LK-2 = system: LK-2
Procedure, shortened: as §1

SK-MES-1 = system: SK-MES-1
Procedure, shortened: as §1

NCI-H661 = system: NCI-H661
Procedure, shortened: as §1

NCI-H1944 = system: NCI-H1944
Procedure, shortened: as §1

NCI-H1666 = system: NCI-H1666
Procedure, shortened: as §1

## C=C1C(=O)O[C@@H](CCCCCCCC)[C@@H]1C(=O)O [C-75] + COc1cccc2cc(-c3nc([C@H]4CC[C@H](C(=O)O)CC4)n4ncnc(N)c34)[nH]c12 [OSI-027] (partner 0.5 µM)
BEN; first compound 0.08 µM
  relative viability: 0.347
BEN; first compound 0.253 µM
  relative viability: 0.293
BEN; first compound 0.8 µM
  relative viability: 0.32
BEN; first compound 8 µM
  relative viability: 0.288
NCI-H358; first compound 0.08 µM
  relative viability: 0.714
NCI-H358; first compound 0.253 µM
  relative viability: 0.871
NCI-H358; first compound 0.8 µM
  relative viability: 0.691
NCI-H358; first compound 2.53 µM
  relative viability: 0.383
NCI-H358; first compound 8 µM
  relative viability: 0.624
LCLC-97TM1; first compound 0.08 µM
  relative viability: 0.554
LCLC-97TM1; first compound 0.253 µM
  relative viability: 0.636
LCLC-97TM1; first compound 0.8 µM
  relative viability: 0.543
LCLC-97TM1; first compound 2.53 µM
  relative viability: 0.192
LCLC-97TM1; first compound 8 µM
  relative viability: 0.479
LC-2-ad; first compound 0.08 µM
  relative viability: 0.745
LC-2-ad; first compound 0.253 µM
  relative viability: 0.799
LC-2-ad; first compound 0.8 µM
  relative viability: 0.747
LC-2-ad; first compound 2.53 µM
  relative viability: 0.646
LC-2-ad; first compound 8 µM
  relative viability: 0.686
LXF-289; first compound 0.08 µM
  relative viability: 0.844
LXF-289; first compound 0.253 µM
  relative viability: 0.758
LXF-289; first compound 0.8 µM
  relative viability: 0.719
LXF-289; first compound 2.53 µM
  relative viability: 0.642
LXF-289; first compound 8 µM
  relative viability: 0.713
NCI-H2087; first compound 0.08 µM
  relative viability: 0.609
NCI-H2087; first compound 0.253 µM
  relative viability: 0.807
NCI-H2087; first compound 0.8 µM
  relative viability: 0.54
NCI-H2087; first compound 2.53 µM
  relative viability: 0.377
NCI-H2087; first compound 8 µM
  relative viability: 0.528
NCI-H650; first compound 0.08 µM
  relative viability: 0.611
NCI-H650; first compound 0.253 µM
  relative viability: 0.401
NCI-H650; first compound 0.8 µM
  relative viability: 0.494
NCI-H650; first compound 2.53 µM
  relative viability: 0.448
NCI-H650; first compound 8 µM
  relative viability: 0.524
NCI-H596; first compound 0.08 µM
  relative viability: 0.887
NCI-H596; first compound 0.253 µM
  relative viability: 0.798
NCI-H596; first compound 0.8 µM
  relative viability: 0.72
NCI-H596; first compound 2.53 µM
  relative viability: 0.622
NCI-H596; first compound 8 µM
  relative viability: 0.678
HCC-15; first compound 0.08 µM
  relative viability: 0.628
HCC-15; first compound 0.253 µM
  relative viability: 0.707
HCC-15; first compound 0.8 µM
  relative viability: 0.655
HCC-15; first compound 2.53 µM
  relative viability: 0.502
HCC-15; first compound 8 µM
  relative viability: 0.636
NCI-H838; first compound 0.08 µM
  relative viability: 0.442
NCI-H838; first compound 0.8 µM
  relative viability: 0.37
NCI-H838; first compound 2.53 µM
  relative viability: 0.36
NCI-H838; first compound 8 µM
  relative viability: 0.404
ChaGo-K-1; first compound 0.08 µM
  relative viability: 0.605
ChaGo-K-1; first compound 0.253 µM
  relative viability: 0.545
ChaGo-K-1; first compound 0.8 µM
  relative viability: 0.532
ChaGo-K-1; first compound 2.53 µM
  relative viability: 0.422
ChaGo-K-1; first compound 8 µM
  relative viability: 0.564
UMC-11; first compound 0.08 µM
  relative viability: 0.457
UMC-11; first compound 0.253 µM
  relative viability: 0.579
UMC-11; first compound 0.8 µM
  relative viability: 0.477
UMC-11; first compound 2.53 µM
  relative viability: 0.461
UMC-11; first compound 8 µM
  relative viability: 0.417
NCI-H1651; first compound 0.08 µM
  relative viability: 0.712
NCI-H1651; first compound 0.253 µM
  relative viability: 0.838
NCI-H1651; first compound 0.8 µM
  relative viability: 0.768
NCI-H1651; first compound 2.53 µM
  relative viability: 0.635
NCI-H1651; first compound 8 µM
  relative viability: 0.815
NCI-H2342; first compound 0.08 µM
  relative viability: 0.582
NCI-H2342; first compound 0.253 µM
  relative viability: 0.656
NCI-H2342; first compound 0.8 µM
  relative viability: 0.582
NCI-H2342; first compound 2.53 µM
  relative viability: 0.628
NCI-H2342; first compound 8 µM
  relative viability: 0.591
LU99A; first compound 0.08 µM
  relative viability: 0.328
LU99A; first compound 0.253 µM
  relative viability: 0.28
LU99A; first compound 0.8 µM
  relative viability: 0.273
LU99A; first compound 2.53 µM
  relative viability: 0.252
LU99A; first compound 8 µM
  relative viability: 0.325
HCC-78; first compound 0.08 µM
  relative viability: 0.354
HCC-78; first compound 0.253 µM
  relative viability: 0.42
HCC-78; first compound 0.8 µM
  relative viability: 0.376
HCC-78; first compound 2.53 µM
  relative viability: 0.329
HCC-78; first compound 8 µM
  relative viability: 0.422
NCI-H322M; first compound 0.08 µM
  relative viability: 0.543
NCI-H322M; first compound 0.253 µM
  relative viability: 0.7
NCI-H322M; first compound 0.8 µM
  relative viability: 0.583
NCI-H322M; first compound 2.53 µM
  relative viability: 0.478
NCI-H322M; first compound 8 µM
  relative viability: 0.588
PC-3 [JPC-3]; first compound 0.08 µM
  relative viability: 0.772
PC-3 [JPC-3]; first compound 0.253 µM
  relative viability: 0.806
PC-3 [JPC-3]; first compound 0.8 µM
  relative viability: 0.736
PC-3 [JPC-3]; first compound 2.53 µM
  relative viability: 0.668
PC-3 [JPC-3]; first compound 8 µM
  relative viability: 0.749
LK-2; first compound 0.08 µM
  relative viability: 0.209
LK-2; first compound 0.253 µM
  relative viability: 0.212
LK-2; first compound 0.8 µM
  relative viability: 0.222
LK-2; first compound 2.53 µM
  relative viability: 0.16
LK-2; first compound 8 µM
  relative viability: 0.145
SK-MES-1; first compound 0.08 µM
  relative viability: 0.738
SK-MES-1; first compound 0.253 µM
  relative viability: 0.666
SK-MES-1; first compound 0.8 µM
  relative viability: 0.568
SK-MES-1; first compound 2.53 µM
  relative viability: 0.469
SK-MES-1; first compound 8 µM
  relative viability: 0.549
NCI-H661; first compound 0.08 µM
  relative viability: 0.697
NCI-H661; first compound 0.253 µM
  relative viability: 0.71
NCI-H661; first compound 0.8 µM
  relative viability: 0.72
NCI-H661; first compound 2.53 µM
  relative viability: 0.635
NCI-H661; first compound 8 µM
  relative viability: 0.736
NCI-H1944; first compound 0.08 µM
  relative viability: 0.441
NCI-H1944; first compound 0.253 µM
  relative viability: 0.426
NCI-H1944; first compound 0.8 µM
  relative viability: 0.392
NCI-H1944; first compound 8 µM
  relative viability: 0.448
NCI-H1666; first compound 0.08 µM
  relative viability: 0.798
NCI-H1666; first compound 0.253 µM
  relative viability: 0.97
NCI-H1666; first compound 0.8 µM
  relative viability: 0.885
NCI-H1666; first compound 2.53 µM
  relative viability: 0.726
NCI-H1666; first compound 8 µM
  relative viability: 0.786
